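Following 48 hours of exposure in 96-well plates, responses at five concentrations were used to interpolate endpoints linearly. GI50 = concentration required for 50% inhibition of growth. TGI: concentration producing complete growth inhibition.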
Key:
Assay in all cases: NCI tumour cell line growth inhibition, 48 h
[1] = test system: IGROV1 ovarian
[2] = test system: ACHN renal
[3] = test system: NCI-H23 lung
[4] = test system: UACC-257 melanoma
[5] = test system: SK-MEL-5 melanoma
[6] = test system: BT-549 breast
[7] = test system: TK-10 renal
[8] = test system: KM12 colon
[9] = test system: M14 melanoma
[10] = test system: SR leukemia
[11] = test system: MOLT-4 leukemia
[12] = test system: EKVX NSCLC
[13] = test system: K-562 leukemia
[14] = test system: UO-31 renal
[15] = test system: OVCAR-3 ovarian
[16] = test system: U251 CNS
[17] = test system: NCI-H226 lung
[18] = test system: CCRF-CEM leukemia
[19] = test system: NCI-H460 lung
[20] = test system: 786-0 renal
[21] = test system: SF-539 CNS
[22] = test system: A498 renal
[23] = test system: HCT-15 colon
[24] = test system: NCI-H522 lung
[25] = test system: LOX IMVI melanoma
[26] = test system: RPMI-8226 leukemia
[27] = test system: T-47D breast
[28] = test system: OVCAR-4 ovarian
[29] = test system: HCT-116 colon

With CN(C)c1nc(NCCNS(=O)(=O)c2ccc(C(=O)/C=C/c3ccccc3)cc2)nc(N2CCOCC2)n1 the GI50 [1] was 15.3 µM, the TGI [1] was 31.9 µM and the GI50 [2] was 18.2 µM. It also gave a TGI [2] of 36.3 µM, a GI50 [3] of 16 µM and a TGI [3] of 30.4 µM. For the same compound, the GI50 [4] was 17.9 µM, the TGI [4] was 32.3 µM and the GI50 [5] was 15.9 µM. It also gave a TGI [5] of 29.4 µM, a GI50 [6] of 11.2 µM and a TGI [6] of 23.7 µM. For the same compound, the GI50 [7] was 16.4 µM, the TGI [7] was 30.2 µM and the GI50 [8] was 2000 nM. The TGI [8] was 4.23 µM, the GI50 [9] was 14.6 µM and the TGI [9] was 31.6 µM. The GI50 [10] was 3.2 µM, the TGI [10] was greater than 100 µM and the GI50 [11] was 4.27 µM. It also gave a TGI [11] greater than 100 µM, a GI50 [12] of 14.7 µM and a TGI [12] of 30.6 µM. For the same compound, the GI50 [13] was 2190 nM, the TGI [13] was greater than 100 µM and the GI50 [14] was 11.2 µM. For the same compound, the TGI [14] was 25 µM, the GI50 [15] was 15.3 µM and the TGI [15] was 28.6 µM. For the same compound, the GI50 [16] was 11.7 µM, the TGI [16] was 25.9 µM and the GI50 [17] was 13.5 µM. It also gave a TGI [17] of 31.7 µM, a GI50 [18] of 4.41 µM and a TGI [18] of 75.9 µM. The GI50 [19] was 18.2 µM, the TGI [19] was 38.3 µM and the GI50 [20] was 14.8 µM. For the same compound, the TGI [20] was 29.1 µM, the GI50 [21] was 11.1 µM and the TGI [21] was 24.3 µM. For the same compound, the GI50 [22] was 14.6 µM, the TGI [22] was 27.8 µM and the GI50 [23] was 5.21 µM. For the same compound, the TGI [23] was 20.5 µM, the GI50 [24] was 13.6 µM and the TGI [24] was 27.1 µM. The GI50 [25] was 1970 nM, the TGI [25] was 4.13 µM and the GI50 [26] was 3.25 µM. For the same compound, the TGI [26] was 11.4 µM, the GI50 [27] was 16 µM and the TGI [27] was 37.4 µM. The GI50 [28] was 14.3 µM, the TGI [28] was 27.8 µM and the GI50 [29] was 1820 nM. For the same compound, the TGI [29] was 3.59 µM.

Reference: PubChem BioAssay (NCI)
